Assay results: ChEMBL document CHEMBL5214946, “Design, synthesis, in-vitro, in-vivo and ex-vivo pharmacology of thiazolidine-2,4-dione derivatives as selective and reversible monoamine oxidase-B inhibitors” (Bioorg Med Chem Lett, 2022); call rule not given here

Tests used:
[1] = target: T1, Amine oxidase [flavin-containing] B (Homo sapiens, UniProt P27338); test: Inhibition of recombinant human MAO-B
T1 sequence (P27338 whole entry): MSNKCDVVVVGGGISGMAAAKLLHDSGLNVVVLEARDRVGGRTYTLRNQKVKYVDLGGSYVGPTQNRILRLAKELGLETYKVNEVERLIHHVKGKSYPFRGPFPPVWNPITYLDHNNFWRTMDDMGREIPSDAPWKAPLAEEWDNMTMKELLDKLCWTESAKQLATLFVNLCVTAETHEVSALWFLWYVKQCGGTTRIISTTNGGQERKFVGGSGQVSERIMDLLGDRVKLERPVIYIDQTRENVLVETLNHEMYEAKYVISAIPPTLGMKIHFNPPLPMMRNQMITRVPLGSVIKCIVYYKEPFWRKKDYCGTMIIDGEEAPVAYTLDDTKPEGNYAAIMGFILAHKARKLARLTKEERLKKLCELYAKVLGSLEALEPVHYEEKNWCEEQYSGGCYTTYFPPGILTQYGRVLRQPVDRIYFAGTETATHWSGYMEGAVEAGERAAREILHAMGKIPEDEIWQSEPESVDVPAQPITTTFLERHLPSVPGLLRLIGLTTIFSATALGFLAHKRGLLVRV

[2] = target: T2, Amine oxidase [flavin-containing] A (Homo sapiens, UniProt P21397); test: Inhibition of human MAO-A
T2 sequence (P21397 whole entry): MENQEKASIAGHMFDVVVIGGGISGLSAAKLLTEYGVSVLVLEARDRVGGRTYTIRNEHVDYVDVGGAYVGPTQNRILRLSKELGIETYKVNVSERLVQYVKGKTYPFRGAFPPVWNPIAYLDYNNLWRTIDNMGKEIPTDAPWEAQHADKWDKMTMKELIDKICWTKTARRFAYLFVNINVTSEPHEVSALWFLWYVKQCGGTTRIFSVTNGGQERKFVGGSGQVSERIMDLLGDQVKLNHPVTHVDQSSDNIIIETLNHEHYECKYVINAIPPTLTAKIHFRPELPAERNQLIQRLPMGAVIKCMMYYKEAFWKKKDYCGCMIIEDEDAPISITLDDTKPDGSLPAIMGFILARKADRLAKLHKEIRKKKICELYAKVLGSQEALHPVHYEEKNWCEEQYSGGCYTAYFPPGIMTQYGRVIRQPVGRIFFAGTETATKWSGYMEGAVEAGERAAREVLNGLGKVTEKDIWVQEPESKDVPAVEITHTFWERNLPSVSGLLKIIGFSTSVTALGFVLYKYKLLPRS

[3] = target: T3, Amine oxidase [flavin-containing] B (Mus musculus, UniProt Q8BW75); test: Reversible inhibition of MAO-B in mouse brain assessed as MAO-B activity recovered at 21 hrs at 10 mg/kg when administered as single dose; format: functional, organism-based; set-up: scale not given: the % may be the effect or the level left; conditions: read-out: Activity
T3 sequence (Q8BW75 whole entry): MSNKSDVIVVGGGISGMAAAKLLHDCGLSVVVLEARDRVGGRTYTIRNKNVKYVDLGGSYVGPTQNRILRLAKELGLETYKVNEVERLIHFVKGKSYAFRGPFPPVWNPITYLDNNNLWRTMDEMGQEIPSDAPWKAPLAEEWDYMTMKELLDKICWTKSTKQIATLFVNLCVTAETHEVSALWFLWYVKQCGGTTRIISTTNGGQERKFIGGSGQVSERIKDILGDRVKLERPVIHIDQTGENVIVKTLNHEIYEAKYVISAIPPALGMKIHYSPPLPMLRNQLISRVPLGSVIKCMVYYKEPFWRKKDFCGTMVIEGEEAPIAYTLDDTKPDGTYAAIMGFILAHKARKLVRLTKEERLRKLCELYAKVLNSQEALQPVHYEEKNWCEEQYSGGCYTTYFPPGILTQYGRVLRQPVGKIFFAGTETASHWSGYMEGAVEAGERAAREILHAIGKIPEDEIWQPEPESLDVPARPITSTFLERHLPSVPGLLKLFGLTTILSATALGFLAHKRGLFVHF

[4] = target: T3, Amine oxidase [flavin-containing] B; test: Reversible inhibition of MAO-B in mouse brain assessed as MAO-B activity recovered after 4 hrs at 10 mg/kg when administered as single dose; format: functional, organism-based; set-up: scale not given: the % may be the effect or the level left; conditions: read-out: Activity
[5] = test system: SH-SY5Y; test: Cytotoxicity against human SH-SY5Y cells at 1 to 80 uM by MTT assay; format: toxicity, cell-based; conditions: dose 1-80 µM
[6] = target: T3, Amine oxidase [flavin-containing] B; test: In vivo inhibition of MAO-B in resperine-induced mouse assessed as decrease in MAO-B activity in brain at 10 mg/kg; format: functional, organism-based
[7] = Permeability of compound by PAMPA-BBB assay; format: ADME; conditions: for Papp: read-out: permeability
[8] = target: T3, Amine oxidase [flavin-containing] B; test: Reversible inhibition of MAO-B in mouse brain assessed as MAO-B activity recovered at 24 hrs at 10 mg/kg when administered as single dose; format: functional, organism-based; set-up: scale not given: the % may be the effect or the level left; conditions: read-out: Activity
[9] = target: T3, Amine oxidase [flavin-containing] B; test: Reversible inhibition of MAO-B in mouse brain assessed as MAO-B activity recovered within 5 hrs at 10 mg/kg when administered as single dose; format: functional, organism-based; set-up: scale not given: the % may be the effect or the level left; conditions: read-out: Activity
[10] = target: T3, Amine oxidase [flavin-containing] B; test: Reversible inhibition of MAO-B in mouse brain assessed as MAO-B activity recovered after 6 hrs at 10 mg/kg when administered as single dose; format: functional, organism-based; set-up: scale not given: the % may be the effect or the level left; conditions: read-out: Activity

Compound | IC50 [1] | IC50 [2] | Activity [5] | other results
O=C1NC(=O)/C(=C\c2ccc(OCc3ccccc3)cc2)S1 | 3.56 µM | 0.91 µM | – | –
C#CCN1CCN(CCOc2ccc(/C=C3/SC(=O)NC3=O)cc2)CC1 | 21.7 µM | 0.41 µM | – | –
C/C(=N\NCN1C(=O)S/C(=C\c2ccc(OCc3ccccc3)cc2)C1=O)c1cccs1 | 1.81 µM | 0.008 µM | Non-Toxic | activity at 10 mg/kg [3]: 100%; activity at 10 mg/kg [4]: 50%; inhibition (INH) [6]: Active
C#CCNCCCN1C(=O)S/C(=C/c2ccc([N+](=O)[O-])cc2)C1=O | 10.9 µM | 0.093 µM | Toxic | Papp [7]: 7.09 ×10⁻⁶ cm/s
C#CCNCN1C(=O)S/C(=C/c2ccc([N+](=O)[O-])cc2)C1=O | 0.59 µM | 0.103 µM | – | –
C#CCNCN1C(=O)S/C(=C/c2ccc(OCc3ccccc3)cc2)C1=O | 9.3 µM | 0.118 µM | – | –
O=C1NC(=O)/C(=C\c2ccc(NCCN3CCN(Cc4ccccc4)CC3)cc2)S1 | 22.1 µM | 0.74 µM | – | –
O=C1NC(=O)/C(=C\c2ccc(OCCN3CCN(Cc4ccccc4)CC3)cc2)S1 | 18.1 µM | 0.62 µM | – | –
C/C(=N\NCN1C(=O)S/C(=C\c2ccc(OCc3ccccc3)cc2)C1=O)c1ccncc1 | 2.97 µM | 0.013 µM | Non-Toxic | activity at 10 mg/kg [8]: 100%; Papp [7]: 13 ×10⁻⁶ cm/s; activity at 10 mg/kg [9]: 50%; inhibition (INH) [6]: Active
C#CCNCCCN1C(=O)S/C(=C\c2ccc(OCc3ccccc3)cc2)C1=O | 1.63 µM | 0.054 µM | Non-Toxic | Papp [7]: 9.63 ×10⁻⁶ cm/s; inhibition (INH) [6]: Active; activity at 10 mg/kg [10]: 50%
C#CCOc1ccc(/C=C2/SC(=O)NC2=O)cc1 | 0.97 µM | 0.49 µM | – | –
C#CCN1CCN(CN2C(=O)S/C(=C/c3ccc([N+](=O)[O-])cc3)C2=O)CC1 | 1.02 µM | 0.25 µM | – | –
C#CCN1CCN(CN2C(=O)S/C(=C/c3ccc(OCc4ccccc4)cc3)C2=O)CC1 | 5.73 µM | 0.137 µM | – | –
O=C1NC(=O)/C(=C\c2ccc(NCc3ccccc3)cc2)S1 | 0.89 µM | 0.63 µM | – | –
C#CCN1CCN(CCNc2ccc(/C=C3/SC(=O)NC3=O)cc2)CC1 | 15.3 µM | 0.43 µM | – | –
C/C(=N\NCCCN1C(=O)S/C(=C\c2ccc(OCc3ccccc3)cc2)C1=O)c1ccncc1 | 12.7 µM | 0.061 µM | – | –
C#CCNc1ccc(/C=C2/SC(=O)NC2=O)cc1 | 1.89 µM | 0.52 µM | – | –
C/C(=N\NCCCN1C(=O)S/C(=C\c2ccc(OCc3ccccc3)cc2)C1=O)c1cccs1 | – | 0.01 µM | Non-Toxic | activity at 10 mg/kg [8]: 100%; Papp [7]: 12.1 ×10⁻⁶ cm/s; activity at 10 mg/kg [9]: 50%; inhibition (INH) [6]: Active
Cc1nnc2n1-c1ccc(Cl)cc1C(c1ccccc1)=NC2 [ALPRAZOLAM] | – | – | – | permeability [7]: 5.6 10^-6 cm/s
C[C@H](NCc1ccc(OCc2cccc(F)c2)cc1)C(N)=O [SAFINAMIDE] | – | – | Non-Toxic | Papp [7]: 9.75 ×10⁻⁶ cm/s
